Laboratory results as given in patent US20110166121A1 (LG LIFE SCIENCES LTD., priority 2008, published 2011).
Where a name gives a salt, the structure may show the parent alone.

Tested on: Human platelet aggregation caused by ADP
Assay: Inhibition of ADP-induced platelet aggregation (Mimic-human PRP)
Type: cell-based
Conditions: 20 μM ADP, human platelet concentrate diluted with PPP, absorption at 595 nm
Description: Platelet Preparation for Aggregation Studies
Human platelet aggregation reaction test is a functional experiment method to verify whether a test compound is an agonist or an antagonist to ADP receptor. […] The platelet product isolated from whole blood was purchased from Chung-Nam blood center (Dae-joen, South Korea). The platelet was isolated from 400 mL of whole blood containing 56 mL of CPDA-1 anticoagulant. To isolate the platelet product, 400 mL of whole blood was centrifuged at 260×g for 5 minutes, and then obtained PRP (platelet rich plasma) was secondary centrifuged at 370×g for 6 minutes. Platelet pellet (10^9/mL) was suspended with 45 mL of plasma and then agitated over 1 hour at 22° C. blood reservoir to stabilize it. The stabilized platelet product was used in the experiment within 24 hours. PCs (Platelet Concentrates) were gently transferred to a new 50 ml-falcon tube. The number of platelet was counted by using animal blood counter (ABC Vet, ABX diagnostics, France). The volume of 30 mL of PCs collected from same donor was centrifuged at 1500 g for 10 min at room temperature to prepare platelet-poor plasma (PPP). The platelet count was adjusted to platelet number of 3˜4×10^8/mL by diluting with PPP.
Evaluation on Inhibitory Effect of ADP-Induced Aggregation
Inhibition of ADP-induced aggregation was determined in 96-well flat-bottom plates (Costar, USA) at room temperature. The diluted platelet was aliquoted into each well of 96 well plate in the volume of 188 μl. […] The platelet including test compounds was immediately mixed on a shaker at 1050 rpm for 1 min and incubated at room temperature for 20 min. Then, 10 μL volume of 400 μM ADP was added: the final concentration of 20 μM ADP in the total reaction volume of 0.2 mL/well. After shaking of the plate at room temperature for 3 min, the absorption of the samples was determined at 595 nm using a microtiter plate reader (Softmax, Molecular Devices).
A dose-dependent curve on serial dilutions of ADP was accomplished by adding vehicle (DMSO) instead of antagonists in order to calculate EC50 of ADP. Inhibition of aggregation was calculated from the increase of absorption at 595 nm at 3 min of the reaction incubation, compared to results of absorption between the 0 and 20 μM ADP control without antagonists. Sigmoidal dose-response curves and Ki were derived by non-linear regression analysis using the Prism software (GraphPad, San Diego Calif.).

In order of rising Ki:
1. CCCc1cc2c(N3CCn4c(nnc4C(F)(F)F)C3)nc(OCCNC(=O)CO)nc2s1 [Example 3-60, 2-Hydroxy-N-{2-[6-propyl-4-(3-trifluoromethyl-5,6-dihydro-8H-[1,2,4]triazolo[4,3-a]pyrazin-7-yl)-thieno[2,3-d]pyrimidin-2-yloxy]-ethyl}-acetamide]  0.7 nM
2. CCCc1cc2c(N3CCn4c(nnc4C(F)(F)F)C3)nc(OCCN3CCCC3=O)nc2s1 [Example 3-62, 1-{2-[6-Propyl-4-(3-trifluoromethyl-5,6-dihydro-8H-[1,2,4]triazolo[4,3-a]pyrazin-7-yl)-thieno[2,3-d]pyrimidin-2-yloxy]-ethyl}-pyrrolidin-2-one]  1.9 nM
3. CCCc1cc2c(N3CCn4c(nnc4C(F)(F)F)C3)nc(OCCNC(=O)C(F)(F)F)nc2s1 [Example 3-61, 2,2,2-Trifluoro-N-{2-[6-propyl-4-(3-trifluoromethyl-5,6-dihydro-8H-[1,2,4]triazolo[4,3-a]pyrazin-7-yl)-thieno[2,3-d]pyrimidin-2-yloxy]-ethyl}-acetamide]  5.4 nM
4. CCCC(=O)N[C@H]1CCN(c2nc(N3CCn4c(nnc4C(F)(F)F)C3)c3cc(CCC)sc3n2)C1 [Example 7-1, Hydrochloric acid salt of N-{(S)-1-[6-Propyl-4-(3-trifluoromethyl-5,6-dihydro-8H-[1,2,4]triazolo[4,3-a]pyrazin-7-yl)-thieno[2,3-d]pyrimidin-2-yl]-pyrrolidin-3-yl}-butyramide]  11 nM
5. CCCc1cc2c(N3CCn4c(nnc4C(F)(F)F)C3)nc(N3CCC[C@@H](NC(C)=O)C3)nc2s1 [Example 7-6, Hydrochloric acid salt of N-{(R)-1-[6-Propyl-4-(3-trifluoromethyl-5,6-dihydro-8H-[1,2,4]triazolo[4,3-a]pyrazin-7-yl)-thieno[2,3-d]pyrimidin-2-yl]-piperidin-3-yl}-acetamide]  18 nM
6. CCCc1cc2c(N3CCn4c(nnc4C(F)(F)F)C3)nc(-c3nc(C(=O)O)cs3)nc2s1 [Example 4-46, 2-[6-Propyl-4-(3-trifluoromethyl-5,6-dihydro-8H-[1,2,4]triazolo[4,3-a]pyrazin-7-yl)thieno[2,3-d]pyrimidin-2-yl]thiazole-4-carboxylic acid]  25 nM
7. CCCc1cc2c(N3CCn4c(nnc4C(F)(F)F)C3)nc(N3CC[C@@H](NC(C)=O)C3)nc2s1 [Example 7-3, Hydrochloric acid salt of N-{(R)-1-[6-Propyl-4-(3-trifluoromethyl-5,6-dihydro-8H-[1,2,4]triazolo[4,3-a]pyrazin-7-yl)-thieno[2,3-d]pyrimidin-2-yl]-pyrrolidin-3-yl}-acetamide]  26 nM
8. CCCc1cc2c(N3CCn4c(nnc4C(F)(F)F)C3)nc(N3CC[C@@H](NC(=O)C(C)C)C3)nc2s1 [Example 7-5, Hydrochloric acid salt of N-{(R)-1-[6-Propyl-4-(3-trifluoromethyl-5,6-dihydro-8H-[1,2,4]triazolo[4,3-a]pyrazin-7-yl)-thieno[2,3-d]pyrimidin-2-yl]-pyrrolidin-3-yl}-isobutyramide]  32 nM
9. CCCc1cc2c(N3CCn4c(nnc4C(F)(F)F)C3)nc(N3CCC(NC(C)=O)CC3)nc2s1 [Example 7-12, Hydrochloric acid salt of N-{1-[6-Propyl-4-(3-trifluoromethyl-5,6-dihydro-8H-[1,2,4]triazolo[4,3-a]pyrazin-7-yl)-thieno[2,3-d]pyrimidin-2-yl]-piperidin-4-yl}-acetamide]  35 nM
10. CCCC(=O)N[C@@H]1CCCN(c2nc(N3CCn4c(nnc4C(F)(F)F)C3)c3cc(CCC)sc3n2)C1 [Example 7-7, Hydrochloric acid salt of N-{(R)-1-[6-Propyl-4-(3-trifluoromethyl-5,6-dihydro-8H-[1,2,4]triazolo[4,3-a]pyrazin-7-yl)-thieno[2,3-d]pyrimidin-2-yl]-piperidin-3-yl}-butyramide]  63 nM
11. CCCC(=O)N[C@@H]1CCN(c2nc(N3CCn4c(nnc4C(F)(F)F)C3)c3cc(CCC)sc3n2)C1 [Example 7-4, Hydrochloric acid salt of N-{(R)-1-[6-Propyl-4-(3-trifluoromethyl-5,6-dihydro-8H-[1,2,4]triazolo[4,3-a]pyrazin-7-yl)-thieno[2,3-d]pyrimidin-2-yl]-pyrrolidin-3-yl}-butyramide]  75 nM
12. CCCC(=O)NC1CCN(c2nc(N3CCn4c(nnc4C(F)(F)F)C3)c3cc(CCC)sc3n2)CC1 [Example 7-13, Hydrochloric acid salt of N-{1-[6-Propyl-4-(3-trifluoromethyl-5,6-dihydro-8H-[1,2,4]triazolo[4,3-a]pyrazin-7-yl)-thieno[2,3-d]pyrimidin-2-yl]-piperidin-4-yl}-butyramide]  76 nM
13. CCCc1cc2c(N3CCn4c(nnc4C(F)(F)F)C3)nc(N3CC[C@H](NC(=O)C(C)C)C3)nc2s1 [Example 7-2, Hydrochloric acid salt of N-{(S)-1-[6-Propyl-4-(3-trifluoromethyl-5,6-dihydro-8H-[1,2,4]triazolo[4,3-a]pyrazin-7-yl)-thieno[2,3-d]pyrimidin-2-yl]-pyrrolidin-3-yl}-isobutyramide]  79 nM
14. CCCc1cc2c(N3CCn4c(nnc4C(F)(F)F)C3)nc(N3CCC(NC(=O)C(C)C)CC3)nc2s1 [Example 7-14, Hydrochloric acid salt of N-{1-[6-Propyl-4-(3-trifluoromethyl-5,6-dihydro-8H-[1,2,4]triazolo[4,3-a]pyrazin-7-yl)-thieno[2,3-d]pyrimidin-2-yl]-piperidin-4-yl}-isobutyramide]  120 nM
15. CCCc1cc2c(N3CCn4c(nnc4C(F)(F)F)C3)nc(N3CCC[C@@H](NC(=O)C(C)C)C3)nc2s1 [Example 7-8, Hydrochloric acid salt of N-{(R)-1-[6-Propyl-4-(3-trifluoromethyl-5,6-dihydro-8H-[1,2,4]triazolo[4,3-a]pyrazin-7-yl)-thieno[2,3-d]pyrimidin-2-yl]-piperidin-3-yl}-isobutyramide]  150 nM
16. CCCc1cc2c(N3CCn4c(nnc4C(F)(F)F)C3)nc(N3CCC[C@H](NC(=O)C(C)C)C3)nc2s1 [Example 7-11, Hydrochloric acid salt of N-{(S)-1-[6-Propyl-4-(3-trifluoromethyl-5,6-dihydro-8H-[1,2,4]triazolo[4,3-a]pyrazin-7-yl)-thieno[2,3-d]pyrimidin-2-yl]-piperidin-3-yl}-isobutyramide]  280 nM
17. CCCc1cc2c(N3CCn4c(nnc4C(F)(F)F)C3)nc(N3CCC[C@H](NC(C)=O)C3)nc2s1 [Example 7-9, Hydrochloric acid salt of N-{(S)-1-[6-Propyl-4-(3-trifluoromethyl-5,6-dihydro-8H-[1,2,4]triazolo[4,3-a]pyrazin-7-yl)-thieno[2,3-d]pyrimidin-2-yl]-piperidin-3-yl}-acetamide]  590 nM
18. CCCC(=O)N[C@H]1CCCN(c2nc(N3CCn4c(nnc4C(F)(F)F)C3)c3cc(CCC)sc3n2)C1 [Example 7-10, Hydrochloric acid salt of N-{(S)-1-[6-Propyl-4-(3-trifluoromethyl-5,6-dihydro-8H-[1,2,4]triazolo[4,3-a]pyrazin-7-yl)-thieno[2,3-d]pyrimidin-2-yl]-piperidin-3-yl}-butyramide]  980 nM
